These are literature values, as cited in publication PMC9160825, “Structural and Functional Characterization of a Novel Scorpion Toxin that Inhibits NaV1.8 via Interactions With the DI Voltage Sensor and DII Pore Module” (Frontiers in Pharmacology, 2022).

For one data set, the system named is house mouse NaV1.8. The conditions noted are these: ref Zhang and Bean, 2021.
The test system of data set [1] is DRG nociceptive sensory neurons. An excerpt: In addition to modifying activation and fast inactivation gating, NaTx36 modifies slow inactivation gating in OtNaV1.8 by substantially shifting the voltage dependence to hyperpolarized membrane potentials (Figure 5B). Slow inactivation differs from fast inactivation in voltage- and time-dependent properties. While fast inactivation inhibits NaV excitability within milliseconds of action potential firing, slow inactivation develops in response to prolonged membrane depolarization (tens of seconds) or a series of action potentials, inhibiting NaV excitability over longer timescales (seconds to ...

Data set [2] concerns sodium channel DI voltage sensor. Also on record: method as in Xiao et al., 2014. Particulars: ref Xiao et al., 2014.

As for `C=C(C)[C@@H]1CCC(C)=C[C@H]1c1c(O)cc(CCCCC)cc1O` [CBD, cannabidiol], the “inhibition of house mouse NaV1.8” value in the data set on house mouse NaV1.8 is “inhibited house mouse NaV1.8 in a state-dependent manner”. In data set [1] (ref Zhang and Bean, 2021), the “repetitive action potential firing and DRG neuronal excitability” value is “reduces repetitive action potential firing and DRG neuronal excitability”. Turning to `COc1cc(CNC(=O)CCCC/C=C/C(C)C)ccc1O` [capsaicin], in data set [1] (sustained excitation of DRG membranes, ref Blair and Bean, 2003), the “NaV1.8 TTX-R Na+ currents and action potential firing” value is “caused a decrease in NaV1.8 TTX-R Na^+ currents and action potential firing”. Turning to ProTx-II: spider toxin, the “effect on gating pore currents via DI voltage sensor” value in data set [2] is recorded as “modify the voltage dependence of gating pore currents”.
